Test results published in US20120135863A1, “COMPOSITION AND METHOD FOR PROMOTING PLANT ROOT GROWTH” (priority 2009, published 2012).

Test system: Raphanus sativus
Test: Root growth promotion test: main root length of Raphanus sativus seedlings in seed growing bag
Format: in vivo
Conditions: compound 2 at 3 ppm, compound I at 10 ppm, mixture 3 ppm compound 2 + 10 ppm compound I; seeds on cardboard impregnated with 17 ml solution; 25° C., 7 days; average of three repeats
Experimental: One (1) part of each of the compound 2 and the compound I was dissolved in 99 parts of dimethyl sulfoxide and each of the resultant solutions was diluted with ion-exchange water so as to adjust the concentrations of the compound 2 and the compound I to 3 ppm and 10 ppm, respectively to thereby prepare respective test chemical solutions.
In the same manner, chemical solutions were prepared so as to adjust the concentrations of the compound 2 and the compound I to 6 ppm and 20 ppm, respectively, and then the respective chemical solutions were mixed in an equivalent amount to prepare a mixed test chemical solution containing 3 ppm of the compound 2 and 10 ppm of the compound I.
A cardboard in a seed growing bag (measuring 177 mm×163 mm, manufactured by Daiki Rika Kogyo Co., Ltd.) was impregnated with 17 ml of each of these test chemical solutions, and 3 seeds of Raphanus sativus were sown on the cardboard. The seed growing bag was placed in a plastic container, and the plastic container was sealed. After culturing in a bright place at 25° C. for 7 days, the length of main root was measured. For comparison, the test was conducted in the same manner without treating with the test chemical solution, and the length of the main root was measured. […]

With `O=C(O)CCC(=O)NCCc1ccccc1` [Compound I, 4-oxo-4-[(2-phenylethyl)amino]-butyric acid] the “Relative value (main root length, non-treated control group as 100)” value was 148.
